Source: patent US20120264799A1, “INDANE-AMINE DERIVATIVES, THEIR PREPARATION AND USE AS MEDICAMENTS” (LABORATORIOS DEL DR. ESTEVE ,S.A., priority 2009, published 2012)

Target: T1, Cloned Human Serotonin Receptor, Subtype 7 (h5HT7) (Homo sapiens, UniProt P34969)
T1 construct: purchased PerkinElmer 6120512; host or cells: CHO cells
Assay: Radioligand binding assay, [125I]LSD, Flashplate
Conditions: h5HT7 expressed in CHO cells; radioligand [125I]LSD 0.82 nM; 240 min at room temperature; read-out: 5-HT7 Ki
Method: Radioligand binding assays were performed using the Cloned Human Serotonin Receptor, Subtype 7 (h5HT7), expressed in CHO cells, coated on Flashplate (Basic FlashPlate Cat.: SMP200) from PerkinElmer (Cat.: 6120512). The protocol assay was essentially the recommended protocol in the Technical Data Sheet by PerkinEmer Life and Analytical Sciences. The Mass membrane protein/well was typically […] and the Receptor/well was about 9-10 fmoles. The Flashplate were let equilibrate at room temperature for one hour before the addition of the components of the assay mixture. The binding buffer was: 50 mM Tris-HCl, pH 7.4, containing 10 mM MgCl2, 0.5 mM EDTA and 0.5% BSA. The radioligand was [^125l]LSD at a final concentration of 0.82 nM. Nonspecific binding was determined with 50 µM of Clozapine. The assay volume was […]. […] The radioactivity were quantified by liquid scintillation spectrophotometry (Wallac 1450 Microbeta Trilux) with a count delay of 4 minutes prior to counting and a counting time of 30 seconds per well. Competition binding data were analyzed by using the LIGAND program (Munson and Rodbard, LIGAND: A versatile, computerized approach for characterization of ligandbinding systems. Anal. Biochem. 107: 220-239, 1980) and assays were performed in triplicate determinations for each point.

T1 sequence (P34969 whole entry): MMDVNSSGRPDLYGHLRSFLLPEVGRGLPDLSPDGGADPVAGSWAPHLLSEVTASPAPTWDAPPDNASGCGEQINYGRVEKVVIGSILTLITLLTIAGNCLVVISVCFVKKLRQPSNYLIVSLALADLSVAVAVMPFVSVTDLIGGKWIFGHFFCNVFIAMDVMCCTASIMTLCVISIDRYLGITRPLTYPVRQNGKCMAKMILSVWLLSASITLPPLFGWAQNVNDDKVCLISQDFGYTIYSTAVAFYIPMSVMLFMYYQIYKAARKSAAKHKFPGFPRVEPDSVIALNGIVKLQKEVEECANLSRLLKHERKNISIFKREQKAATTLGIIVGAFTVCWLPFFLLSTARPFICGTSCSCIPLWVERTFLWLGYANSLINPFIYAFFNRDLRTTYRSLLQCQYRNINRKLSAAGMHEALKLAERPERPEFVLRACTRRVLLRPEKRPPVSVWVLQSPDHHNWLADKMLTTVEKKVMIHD

Compound | Ki
Cc1nn(C)c(-c2ccc3c(c2)C(N(C)C)CC3)c1C (centres unmarked) [Example 3, N,N-dimethyl-6-(1,3,4-trimethyl-1H-pyrazol-5-yl)-2,3-dihydro-1H-inden-1-amine] | 425 nM
Cc1nn(C(C)C)c(-c2ccc3c(c2)C(N(C)C)CC3)c1C (centres unmarked) [Example 9, 6-(1-lsopropyl-3,4-dimethyl-1H-pyrazol-5-yl)-N,N-dimethyl-2,3-dihydro-1H-inden-1-amine] | 360 nM
